Holding throughout (experiment): relative viability (nuclei count vs DMSO), 5 days (fraction); higher = more cells survive
Compound in experiment [1]: CCn1c(-c2nonc2N)nc2c(C#CC(C)(C)O)ncc(OC[C@H]3CCCNC3)c21 + CCNC(=O)c1noc(-c2cc(C(C)C)c(O)cc2O)c1-c1ccc(CN2CCOCC2)cc1 [Luminespib] (partner 0.01 µM)
Summed up:
(§1)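 Nuclei were stained with Hoechst during a one-step fixation (final 0.05% Triton X-100, 1% formaldehyde, 1 ug/ml Hoechst) carried out 5 days after dosing, then counted on 4× images. The cells, lung cancer lines in 1536-well plates, had been dosed by pin tool the day after seeding with one drug alone or a fixed anchor-drug dose plus five library-drug doses (not always all listed) in √10 steps. Relative viability is the nuclei count in treated wells divided by that in vehicle wells, and each value is the median of duplicate plates.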

Compound in experiment [2]: CCn1c(-c2nonc2N)nc2c(C#CC(C)(C)O)ncc(OC[C@H]3CCCNC3)c21 + CS(=O)(=O)CCNCc1ccc(-c2ccc3ncnc(Nc4ccc(OCc5cccc(F)c5)c(Cl)c4)c3c2)o1 [Lapatinib] (partner 2 µM)
Summed up:
as §1

Compound in experiment [3]: CCOC1=CC=CC=C1N=NC2=C(NN(C2=O)C3=NC(=CS3)C4=CC=CC=C4)C [BAM7] + COc1cccc2cc(-c3nc([C@H]4CC[C@H](C(=O)O)CC4)n4ncnc(N)c34)[nH]c12 [OSI-027] (partner 0.5 µM)
Summed up: as §1

Compound in experiment [4]: CCn1c(-c2nonc2N)nc2c(C#CC(C)(C)O)ncc(OC[C@H]3CCCNC3)c21 + NC(=O)Nc1cc(-c2cccc(F)c2)sc1C(=O)N[C@H]1CCCNC1 [AZD7762] (partner 0.2 µM)
Summed up:
as §1

For the cell line NCI-H2126, the relative viability was 0.85 in experiment [1] (first compound 0.01 µM); 0.914 in experiment [1] (first compound 0.03162 µM); 0.892 in experiment [1] (first compound 0.1 µM); 0.859 in experiment [1] (first compound 0.3162 µM); 0.961 in experiment [1] (first compound 1 µM); 0.779 in experiment [2] (first compound 0.01 µM). For the same cell line, the relative viability worked out at 0.773 in experiment [2] (first compound 0.03162 µM); 0.641 in experiment [2] (first compound 0.1 µM); 0.731 in experiment [2] (first compound 0.3162 µM); 0.755 in experiment [2] (first compound 1 µM); 0.662 in experiment [3] (first compound 0.5 µM); 0.733 in experiment [3] (first compound 5 µM). Also, the relative viability in experiment [3] (first compound 15.81 µM) was 0.736; in experiment [3] (first compound 50 µM), 0.641; in experiment [4] (first compound 0.01 µM), 0.995; in experiment [4] (first compound 0.03162 µM), 0.982; in experiment [4] (first compound 0.1 µM), 1; in experiment [4] (first compound 0.3162 µM) it was 1.02. In experiment [4] (first compound 1 µM), the relative viability is 1.04.

As to NCI-H2170, the relative viability in experiment [1] (first compound 0.01 µM) was determined as 0.779; in experiment [1] (first compound 0.03162 µM), 0.785; in experiment [1] (first compound 0.1 µM), 0.572; in experiment [1] (first compound 0.3162 µM), 0.731; in experiment [1] (first compound 1 µM) it was 0.744; in experiment [2] (first compound 0.01 µM), 0.283. Besides, the relative viability was 0.254 in experiment [2] (first compound 0.03162 µM); 0.266 in experiment [2] (first compound 0.1 µM); 0.261 in experiment [2] (first compound 0.3162 µM); 0.302 in experiment [2] (first compound 1 µM); 0.688 in experiment [3] (first compound 0.5 µM); 0.592 in experiment [3] (first compound 5 µM). Besides, the relative viability was determined as 0.635 in experiment [3] (first compound 15.81 µM); 0.72 in experiment [3] (first compound 50 µM); 0.756 in experiment [4] (first compound 0.01 µM); 0.947 in experiment [4] (first compound 0.03162 µM); 0.86 in experiment [4] (first compound 0.1 µM); 0.84 in experiment [4] (first compound 0.3162 µM). Also, in experiment [4] (first compound 1 µM), the relative viability was determined as 0.941.

Turning to NCI-H2347, the relative viability in experiment [1] (first compound 0.01 µM) came to 0.396; in experiment [1] (first compound 0.03162 µM), 0.0975; in experiment [1] (first compound 0.3162 µM), 0.516; in experiment [1] (first compound 1 µM) it was 0.31; in experiment [2] (first compound 0.01 µM), 0.891; in experiment [2] (first compound 0.03162 µM), 0.934. Moreover, the relative viability stood at 0.995 in experiment [2] (first compound 0.1 µM); 0.897 in experiment [2] (first compound 0.3162 µM); 0.889 in experiment [2] (first compound 1 µM); 0.478 in experiment [3] (first compound 0.5 µM); 0.446 in experiment [3] (first compound 5 µM); 0.4 in experiment [3] (first compound 50 µM). The relative viability was 0.612 in experiment [4] (first compound 0.01 µM); 0.738 in experiment [4] (first compound 0.03162 µM); 0.636 in experiment [4] (first compound 0.1 µM); 0.63 in experiment [4] (first compound 0.3162 µM); 0.562 in experiment [4] (first compound 1 µM).

As to NCI-H2405, the relative viability in experiment [1] (first compound 0.01 µM) came to 0.542; in experiment [1] (first compound 0.03162 µM), 0.793; in experiment [1] (first compound 0.1 µM), 0.663; in experiment [1] (first compound 0.3162 µM), 0.647; in experiment [1] (first compound 1 µM), 0.698; in experiment [2] (first compound 0.01 µM) it was 1.11. In addition, the relative viability was 1.06 in experiment [2] (first compound 0.03162 µM); 1.01 in experiment [2] (first compound 0.3162 µM); 1.02 in experiment [2] (first compound 1 µM); 0.623 in experiment [3] (first compound 0.5 µM); 0.686 in experiment [3] (first compound 5 µM); 0.608 in experiment [3] (first compound 15.81 µM). In addition, the relative viability in experiment [3] (first compound 50 µM) came to 0.683; in experiment [4] (first compound 0.01 µM) it was 0.773; in experiment [4] (first compound 0.03162 µM) it was 0.77; in experiment [4] (first compound 0.1 µM), 0.792; in experiment [4] (first compound 0.3162 µM), 0.731; in experiment [4] (first compound 1 µM), 0.721.

For the cell line NCI-H3122, the relative viability in experiment [1] (first compound 0.01 µM) amounted to 0.0785; in experiment [1] (first compound 0.03162 µM) it was 0.0949; in experiment [1] (first compound 0.1 µM), 0.101; in experiment [1] (first compound 0.3162 µM) it was 0.072; in experiment [1] (first compound 1 µM), 0.0984; in experiment [2] (first compound 0.01 µM), 0.959. Also, the relative viability in experiment [2] (first compound 0.03162 µM) came to 1.04; in experiment [2] (first compound 0.1 µM), 1.05; in experiment [2] (first compound 0.3162 µM), 1.13; in experiment [2] (first compound 1 µM), 1; in experiment [3] (first compound 0.5 µM), 1.03; in experiment [3] (first compound 5 µM) it was 1.11. Moreover, the relative viability came out at 1.01 in experiment [3] (first compound 15.81 µM); 1.28 in experiment [3] (first compound 50 µM); 1.01 in experiment [4] (first compound 0.01 µM); 1.03 in experiment [4] (first compound 0.03162 µM); 0.997 in experiment [4] (first compound 0.1 µM); 0.975 in experiment [4] (first compound 0.3162 µM). Besides, the relative viability in experiment [4] (first compound 1 µM) came out at 1.04.

In the case of PC-3 [JPC-3], the relative viability in experiment [1] (first compound 0.01 µM) turned out to be 0.734; in experiment [1] (first compound 0.03162 µM), 0.726; in experiment [1] (first compound 0.1 µM), 0.709; in experiment [1] (first compound 0.3162 µM), 0.67; in experiment [1] (first compound 1 µM) it was 0.591; in experiment [2] (first compound 0.01 µM), 0.442. The relative viability is 0.433 in experiment [2] (first compound 0.03162 µM); 0.472 in experiment [2] (first compound 0.1 µM); 0.449 in experiment [2] (first compound 0.3162 µM); 0.445 in experiment [2] (first compound 1 µM); 0.668 in experiment [3] (first compound 0.5 µM); 0.698 in experiment [3] (first compound 5 µM). The relative viability in experiment [3] (first compound 15.81 µM) was found to be 0.698; in experiment [3] (first compound 50 µM) it was 0.668; in experiment [4] (first compound 0.01 µM) it was 0.724; in experiment [4] (first compound 0.1 µM), 0.796; in experiment [4] (first compound 0.3162 µM), 0.692; in experiment [4] (first compound 1 µM), 0.859.

Consider PC-14, for which the relative viability in experiment [1] (first compound 0.01 µM) was found to be 0.173; in experiment [1] (first compound 0.03162 µM), 0.112; in experiment [1] (first compound 0.1 µM) it was 0.158; in experiment [1] (first compound 0.3162 µM), 0.107; in experiment [1] (first compound 1 µM), 0.148; in experiment [2] (first compound 0.01 µM), 0.314. In addition, the relative viability in experiment [2] (first compound 0.03162 µM) was found to be 0.406; in experiment [2] (first compound 0.1 µM) it was 0.319; in experiment [2] (first compound 0.3162 µM) it was 0.246; in experiment [2] (first compound 1 µM) it was 0.291; in experiment [3] (first compound 0.5 µM), 0.872; in experiment [3] (first compound 5 µM), 0.898. Further, the relative viability in experiment [3] (first compound 15.81 µM) worked out at 0.764; in experiment [3] (first compound 50 µM), 0.926; in experiment [4] (first compound 0.01 µM), 0.31; in experiment [4] (first compound 0.03162 µM) it was 0.285; in experiment [4] (first compound 0.1 µM) it was 0.356; in experiment [4] (first compound 0.3162 µM) it was 0.31. Besides, the relative viability in experiment [4] (first compound 1 µM) was determined as 0.342.

RERF-LC-KJ: the relative viability in experiment [1] (first compound 0.01 µM) amounted to 1.12; in experiment [1] (first compound 0.03162 µM), 1.31; in experiment [1] (first compound 0.1 µM) it was 1.27; in experiment [1] (first compound 0.3162 µM) it was 1.19; in experiment [1] (first compound 1 µM), 1.1; in experiment [2] (first compound 0.01 µM), 0.873. Besides, the relative viability in experiment [2] (first compound 0.03162 µM) was 0.743; in experiment [2] (first compound 0.1 µM), 0.814; in experiment [2] (first compound 0.3162 µM), 0.832; in experiment [2] (first compound 1 µM) it was 0.926; in experiment [3] (first compound 0.5 µM), 0.472; in experiment [3] (first compound 5 µM) it was 0.422. The relative viability in experiment [3] (first compound 15.81 µM) is 0.334; in experiment [3] (first compound 50 µM) it was 0.404; in experiment [4] (first compound 0.01 µM), 1; in experiment [4] (first compound 0.03162 µM), 1.07; in experiment [4] (first compound 0.1 µM) it was 0.949; in experiment [4] (first compound 0.3162 µM) it was 0.867. For the same cell line, the relative viability in experiment [4] (first compound 1 µM) was determined as 1.05.

(Values after the supplement of paper PMC10307832.)
